Results from patent US20090324509A1, “INSECTICIDAL COMPOSITION” (LIVIE BIOPESTICIDES LIMITED, priority 2006, published 2009).

Tests used:
Format in all cases: in vivo
[1] = tested on: Deer Tick (Ixodes ricinus); assay: Potter tower spray bioassay on adult arthropods, mortality; details: 1.0 ml/pot, adults, room temperature; % of negative control
Procedure: (§1) The IGR's Methoprene and Diflubenzuron were sources as WHO standard preparations at 20 mg/l technical from WHO, Geneva, and used as positive controls or mixtures (50:50) with 5.0% p-cymene.
(§2) Laboratory colonies of the cat flea (Ctenocephalides felis) and the Deer Tick (Ixodes ricinus) were used in bioassays undertaken at room temperature.
(§3) Bioassays consisted of plastic pots with a netting cover holding batches of 10 adult insects of each species being placed under a potter tower which then sprayed a fine particulate aerosol of even rate. Application rates were always 1.0 ml/pot which is sufficient to wet the inner surface without leaving free liquid residues. After exposure to the treatment or a 5% ethanol control, arthropods were then transferred to a clean plastic holding pot and held at room temperature for 3 days with mortality scored after 24 & 72 hours. Mortality was calculated as % of negative control.

[2] = tested on: cat flea (Ctenocephalides felis); assay: as above; details: 1.0 ml/pot, adults, room temperature; % of negative control
Procedure: as §1, §2, §3

[3] = tested on: a range of pests including Musca domestica, Periplaneta Americana, Blatella germanica and others; assay: Tests of insecticidal activity of p-cymene against a range of pests; details: 15 listed pest species

Question: What does the source list for Cc1ccc(C(C)C)cc1 [p-cymene]?
Answer: 24 hours mortality [1]: 28%; 72 hours mortality [1]: 55%; 24 hours mortality [2]: 76%; 72 hours mortality [2]: 88%; insecticidal activity [3]: broad spectrum insecticidal activity
